From the supplement of paper PMC10627819
In brackets after ≈: the same amount, converted by molar mass.

Experiments:
[1] = tested on: B. subtilis 168
[2] = tested on: S. aureus Newman
[3] = tested on: S. aureus DSM 20231
[4] = tested on: S. pneumoniae D39V
[5] = tested on: B. subtilis 168; test: fitness (endpoint OD595 vs no drug) (fraction); higher = more growth
In short: (§1)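 Volumes were 30 µl per well, or 55 µl for S. pneumoniae, in 384-well plates inoculated at OD595 0.01. Media were TSB, LB Lennox or CY at 37 °C, and OD595 was read every 30 min for 14 h with first-reading background subtraction. Fitness is the ratio of optical density at stationary-phase entry to the robust mean of no-drug controls. That ratio is capped at 1.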

[6] = tested on: S. aureus Newman; test: as above
In short: as §1

[7] = tested on: S. aureus DSM 20231; test: as above
In short: as §1

[8] = tested on: S. pneumoniae D39V; test: as above
In short: as §1

[9] = tested on: B. subtilis 168; test: Bliss interaction score (quartile over a dose matrix) (fitness difference); higher = more antagonism (negative = synergy)
In short: (§2)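 The Bliss score subtracts expected fitness, the product of the single-drug fitness values, from observed fitness. Fitness is plate-normalised OD595 at entry into stationary phase, relative to the robust no-drug mean and capped at 1, with single-drug fitness inferred from combinations. Summaries are quartiles over technical, biological and donor/recipient replicates.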

[10] = tested on: S. aureus Newman; test: as above
In short: as §2

[11] = tested on: S. aureus DSM 20231; test: as above
In short: as §2

[12] = tested on: S. pneumoniae D39V; test: as above
In short: as §2
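For Bliss interaction score (quartile over a dose matrix) in this document: first quartile when negative (synergy) and third quartile when positive (antagonism).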

CC[C@H]1OC(=O)[C@H](C)[C@@H](O[C@H]2C[C@@](C)(OC)[C@@H](O)[C@H](C)O2)[C@H](C)[C@@H](O[C@@H]2O[C@H](C)C[C@H](N(C)C)[C@H]2O)[C@](C)(O)C[C@@H](C)CN(C)[C@H](C)[C@@H](O)[C@]1(C)O [Azithromycin]
Settings | MIC [µg/mL]
[1] | 2 (≈ 2.67 µM)
[2] | 0.5 (≈ 0.668 µM)
[3] | 0.556 (≈ 0.742 µM)
[4] | 2 (≈ 2.67 µM)

fitness
Settings | 0.125 µg/mL | 0.25 µg/mL | 0.5 µg/mL | 1 µg/mL | 2 µg/mL
[5] | – | 0.891 | 0.869 | 0.699 | 0.0641
[6] | 0.93 | 0.901 | 0.706 | – | –
[7] | 0.994 | 0.914 | 0.508 | 0.834 | –
[8] | – | 0.524 | 0.323 | 0.096 | –

CC1=C(C(=O)O)N2C(=O)[C@@H](NC(=O)[C@H](N)c3ccccc3)[C@H]2SC1 [Cephalexin]
Settings | MIC [µg/mL]
[2] | 4 (≈ 11.5 µM)
[3] | 4 (≈ 11.5 µM)
[4] | 4 (≈ 11.5 µM)

fitness
Settings | 0.125 µg/mL | 0.25 µg/mL | 0.5 µg/mL | 1 µg/mL | 2 µg/mL | 4 µg/mL
[5] | 0.925 | 0.917 | 0.937 | 0.939 | – | –
[6] | – | 0.987 | ≥ 1 | ≥ 1 | ≥ 1 | –
[8] | – | – | – | 0.649 | 0.29 | 0.0479

O=C(O)[C@H]1/C(=C/CO)O[C@@H]2CC(=O)N21 [Clavulanic acid]
Settings | MIC [µg/mL]
[1] | 8 (≈ 40.2 µM)
[2] | 0.5 (≈ 2.51 µM)
[3] | 0.5 (≈ 2.51 µM)
[4] | 2 (≈ 10 µM)

fitness
Settings | 0.5 µg/mL | 1 µg/mL | 1.5 µg/mL | 2 µg/mL | 3 µg/mL | 6 µg/mL
[5] | – | – | 0.899 | – | 0.887 | 0.769
[8] | 0.966 | 0.939 | – | 0.867 | – | –

Clc1ccc(COC(Cn2ccnc2)c2ccc(Cl)cc2Cl)c(Cl)c1 (stereo not drawn) [Miconazole]
Settings | MIC [µg/mL]
[1] | 5 (≈ 12 µM)
[2] | 3 (≈ 7.21 µM)
[3] | 5 (≈ 12 µM)
[4] | 10 (≈ 24 µM)

[8]
Settings | fitness
1.25 µg/mL | 0.907
2.5 µg/mL | 0.893
5 µg/mL | 0.926

Cc1onc(-c2ccccc2)c1C(=O)N[C@@H]1C(=O)N2[C@@H]1SC(C)(C)[C@@H]2C(=O)O [Oxacillin]
Settings | MIC [µg/mL]
[2] | 0.069 (≈ 0.172 µM)
[3] | 0.069 (≈ 0.172 µM)
[4] | 0.031 (≈ 0.0772 µM)

Settings | fitness
[5], 0.002 µg/mL | 0.925
[5], 0.004 µg/mL | 0.936
[5], 0.0078 µg/mL | 0.941
[5], 0.008 µg/mL | 0.962
[5], 0.0155 µg/mL | 0.952
[5], 0.031 µg/mL | 0.902
[6], 0.0156 µg/mL | 0.843
[6], 0.0312 µg/mL | 0.759
[6], 0.0625 µg/mL | 0.608
[7], 0.0156 µg/mL | 0.972
[7], 0.0312 µg/mL | 0.889
[7], 0.0625 µg/mL | 0.621
[8], 0.005 µg/mL | ≥ 1
[8], 0.01 µg/mL | 0.996
[8], 0.02 µg/mL | 0.986
[8], 0.04 µg/mL | 0.515

Cc1onc(-c2ccccc2)c1C(=O)N[C@@H]1C(=O)N2[C@@H]1SC(C)(C)[C@@H]2C(=O)O [Oxacillin] + Cc1cc(NS(=O)(=O)c2ccc(N)cc2)no1 [Sulfamethoxazol]
Settings | Bliss interaction score
[9] | 0.0542
[10] | -0.0519
[11] | -0.0464
[12] | 0.0796

fitness
Settings | partner 1 µg/mL | partner 2 µg/mL | partner 4 µg/mL
[5], first compound 0.002 µg/mL | 0.996 | 0.968 | ≥ 1
[5], first compound 0.004 µg/mL | 0.988 | 0.947 | 0.984
[5], first compound 0.008 µg/mL | 0.93 | 0.929 | 0.915
[6], first compound 0.0156 µg/mL | 0.748 | 0.686 | –
[6], first compound 0.0312 µg/mL | 0.758 | 0.688 | –
[6], first compound 0.0625 µg/mL | 0.63 | 0.624 | 0.556
[7], first compound 0.0156 µg/mL | 0.795 | 0.865 | 0.866
[7], first compound 0.0312 µg/mL | 0.636 | 0.65 | 0.719
[7], first compound 0.0625 µg/mL | 0.469 | 0.462 | 0.485
[8], first compound 0.01 µg/mL | 0.954 | 0.961 | 0.966
[8], first compound 0.02 µg/mL | 0.888 | 0.904 | 0.915
[8], first compound 0.04 µg/mL | 0.273 | 0.32 | 0.395

one replicate
Settings | fitness
[5], first compound 0.0078 µg/mL, partner 0.5 µg/mL | 0.943
[5], first compound 0.0078 µg/mL, partner 1 µg/mL | 0.864
[5], first compound 0.0078 µg/mL, partner 2 µg/mL | 0.896
[5], first compound 0.0155 µg/mL, partner 0.5 µg/mL | 0.997
[5], first compound 0.0155 µg/mL, partner 1 µg/mL | 0.755
[5], first compound 0.0155 µg/mL, partner 2 µg/mL | 0.877
[5], first compound 0.031 µg/mL, partner 0.5 µg/mL | 0.921
[5], first compound 0.031 µg/mL, partner 1 µg/mL | 0.9
[5], first compound 0.031 µg/mL, partner 2 µg/mL | 0.866
[5], first compound 0.075 µg/mL, partner 1 µg/mL | 0.49
[5], first compound 0.075 µg/mL, partner 2 µg/mL | 0.454
[5], first compound 0.075 µg/mL, partner 4 µg/mL | 0.529
[5], first compound 0.15 µg/mL, partner 1 µg/mL | 0.0391
[5], first compound 0.15 µg/mL, partner 2 µg/mL | 0.0283
[5], first compound 0.15 µg/mL, partner 4 µg/mL | 0.0224
[5], first compound 0.3 µg/mL, partner 1 µg/mL | 0.0079
[5], first compound 0.3 µg/mL, partner 2 µg/mL | 0.0431
[5], first compound 0.3 µg/mL, partner 4 µg/mL | 0.0098
[6], first compound 0.0156 µg/mL, partner 8 µg/mL | 0.9
[6], first compound 0.0312 µg/mL, partner 8 µg/mL | 0.845
[6], first compound 0.0625 µg/mL, partner 8 µg/mL | 0.783

C[n+]1ccc(-c2cc[n+](C)cc2)cc1 [Paraquat] + CC1=C\[C@@H](O)CC(=O)Cc2nc(co2)C(=O)N2CCC=C2C(=O)O[C@H](C(C)C)[C@H](C)/C=C/C(=O)NC\C=C\1 [Virginiamycin M1]
Settings | Bliss interaction score
[9] | 0.0473
[10] | 0.0334
[11] | 0.0744
[12] | -0.0275

fitness
Settings | first compound 1.25 µg/mL | first compound 1.5 µg/mL | first compound 2.5 µg/mL | first compound 3 µg/mL | first compound 5 µg/mL | first compound 6 µg/mL
[5], partner 0.0625 µg/mL | 0.951 | – | 0.934 | – | 0.819 | –
[5], partner 0.125 µg/mL | 0.918 | – | 0.934 | – | 0.856 | –
[5], partner 0.25 µg/mL | 0.93 | – | 0.95 | – | 0.893 | –
[7], partner 0.0625 µg/mL | 0.912 | – | 0.897 | – | 0.872 | –
[7], partner 0.125 µg/mL | 0.967 | – | 0.981 | – | 0.936 | –
[7], partner 0.25 µg/mL | 0.935 | – | 0.882 | – | 0.934 | –
[8], partner 0.5 µg/mL | – | 0.987 | – | 0.988 | – | 0.991
[8], partner 1 µg/mL | – | 0.991 | – | 0.978 | – | 0.967
[8], partner 2 µg/mL | – | 0.937 | – | 0.93 | – | 0.897

fitness, one replicate
Settings | first compound 1.25 µg/mL | first compound 1.5 µg/mL | first compound 2.5 µg/mL | first compound 3 µg/mL | first compound 5 µg/mL | first compound 6 µg/mL
[6], partner 0.0625 µg/mL | 0.883 | – | 0.93 | – | 0.863 | –
[6], partner 0.125 µg/mL | 0.885 | – | 0.934 | – | 0.894 | –
[6], partner 0.25 µg/mL | 0.868 | – | 0.9 | – | 0.929 | –
[6], partner 0.5 µg/mL | 0.862 | – | 0.852 | – | 0.908 | –
[6], partner 1 µg/mL | 0.949 | – | 0.959 | – | 0.971 | –
[6], partner 2 µg/mL | 0.862 | – | 0.848 | – | 0.855 | –
[7], partner 0.5 µg/mL | 0.831 | – | 0.901 | – | 0.858 | –
[7], partner 1 µg/mL | 0.781 | – | 0.848 | – | 0.898 | –
[8], partner 0.15 µg/mL | – | ≥ 1 | – | ≥ 1 | – | 0.975
[8], partner 0.3 µg/mL | – | ≥ 1 | – | ≥ 1 | – | 0.948
